Blank lines part the entries; values can stand above or below the molecule they belong to.
Legend:
[1] = target: T1, Monoglyceride lipase (Rattus norvegicus, UniProt Q8R431); assay: Inhibition of recombinant rat N-terminal histidine tagged MAGL expressed in Escherichia coli Rosetta 2 (DE3) pLysS cells preincubated for 10 mins followed by 2-OG substrate addition after 10 mins by LC/MS analysis
T1 sequence (Q8R431 whole entry): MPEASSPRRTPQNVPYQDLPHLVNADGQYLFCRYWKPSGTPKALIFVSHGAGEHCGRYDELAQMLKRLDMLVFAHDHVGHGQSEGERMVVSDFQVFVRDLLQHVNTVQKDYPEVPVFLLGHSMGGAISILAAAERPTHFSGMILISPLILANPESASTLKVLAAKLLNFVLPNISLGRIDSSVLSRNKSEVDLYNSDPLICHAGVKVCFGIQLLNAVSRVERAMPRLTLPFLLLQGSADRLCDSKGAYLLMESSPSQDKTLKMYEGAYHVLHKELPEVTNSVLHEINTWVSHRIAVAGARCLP

[2] = target: T2, Fatty-acid amide hydrolase 1 (Rattus norvegicus, UniProt P97612); assay: Inhibition of rat FAAH
T2 sequence (P97612 whole entry): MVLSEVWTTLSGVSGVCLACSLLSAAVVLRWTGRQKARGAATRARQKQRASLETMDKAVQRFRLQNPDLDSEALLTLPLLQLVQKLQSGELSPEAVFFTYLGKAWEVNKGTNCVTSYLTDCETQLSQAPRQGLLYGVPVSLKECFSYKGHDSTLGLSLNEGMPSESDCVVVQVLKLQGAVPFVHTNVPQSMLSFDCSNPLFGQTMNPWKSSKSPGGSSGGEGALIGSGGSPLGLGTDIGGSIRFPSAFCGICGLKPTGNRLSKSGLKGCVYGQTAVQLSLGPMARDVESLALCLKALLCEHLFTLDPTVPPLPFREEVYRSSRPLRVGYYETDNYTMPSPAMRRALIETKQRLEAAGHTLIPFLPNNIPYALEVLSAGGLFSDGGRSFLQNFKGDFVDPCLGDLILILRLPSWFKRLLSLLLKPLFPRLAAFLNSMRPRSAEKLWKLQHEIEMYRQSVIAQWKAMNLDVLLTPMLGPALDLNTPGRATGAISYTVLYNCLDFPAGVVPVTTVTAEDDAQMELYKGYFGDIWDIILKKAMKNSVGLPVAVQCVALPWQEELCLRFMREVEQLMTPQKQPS

[3] = target: T3, N-acylethanolamine-hydrolyzing acid amidase (Homo sapiens, UniProt Q02083); assay: Time dependent inhibition of recombinant human NAAA expressed in HEK293 cell membranes using [14C]-PEA as substrate by liquid scintillation counting method
T3 sequence (Q02083 whole entry): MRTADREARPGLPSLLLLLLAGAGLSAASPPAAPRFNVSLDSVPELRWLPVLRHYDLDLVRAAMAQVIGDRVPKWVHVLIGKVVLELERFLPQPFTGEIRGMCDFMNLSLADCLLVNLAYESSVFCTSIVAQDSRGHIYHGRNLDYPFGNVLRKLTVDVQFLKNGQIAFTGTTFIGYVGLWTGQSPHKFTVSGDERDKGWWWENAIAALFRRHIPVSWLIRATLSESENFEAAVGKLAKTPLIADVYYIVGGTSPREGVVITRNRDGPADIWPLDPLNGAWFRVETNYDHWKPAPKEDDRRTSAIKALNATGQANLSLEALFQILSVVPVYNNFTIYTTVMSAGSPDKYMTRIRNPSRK

[4] = target: T3, N-acylethanolamine-hydrolyzing acid amidase; assay: Time dependent inhibition of recombinant human NAAA expressed in HEK293 cells by liquid scintillation counting method; assay type: cell-based
[5] = target: T4, Monoglyceride lipase (Homo sapiens, UniProt Q99685); assay: Inhibition of recombinant human N-terminal His6-tagged and C-terminal Strep-tagged MAGL expressed in Escherichia coli Rosetta using [3H]2-OG as substrate after 10 mins by liquid scintillation counting method
T4 sequence (Q99685 whole entry): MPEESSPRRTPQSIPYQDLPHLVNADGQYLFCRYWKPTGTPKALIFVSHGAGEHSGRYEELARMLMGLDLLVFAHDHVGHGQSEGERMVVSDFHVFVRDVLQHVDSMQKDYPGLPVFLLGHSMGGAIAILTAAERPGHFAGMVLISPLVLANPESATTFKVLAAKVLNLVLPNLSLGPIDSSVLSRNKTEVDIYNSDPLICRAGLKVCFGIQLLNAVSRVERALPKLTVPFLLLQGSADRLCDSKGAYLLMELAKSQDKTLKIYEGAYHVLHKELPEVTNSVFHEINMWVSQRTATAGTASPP

[6] = target: T1, Monoglyceride lipase; assay: Inhibition of recombinant rat MAGL expressed in Escherichia coli using 2-AG as substrate
[7] = target: T5, Fatty-acid amide hydrolase 2 (Homo sapiens, UniProt Q6GMR7); assay: Inhibition of recombinant human N-terminal FLAG-tagged/C-terminal Myc-His6 tagged FAAH2 (32 to 579 residues) expressed in COS7 cell membranes; assay type: cell-based
T5 sequence (Q6GMR7 whole entry): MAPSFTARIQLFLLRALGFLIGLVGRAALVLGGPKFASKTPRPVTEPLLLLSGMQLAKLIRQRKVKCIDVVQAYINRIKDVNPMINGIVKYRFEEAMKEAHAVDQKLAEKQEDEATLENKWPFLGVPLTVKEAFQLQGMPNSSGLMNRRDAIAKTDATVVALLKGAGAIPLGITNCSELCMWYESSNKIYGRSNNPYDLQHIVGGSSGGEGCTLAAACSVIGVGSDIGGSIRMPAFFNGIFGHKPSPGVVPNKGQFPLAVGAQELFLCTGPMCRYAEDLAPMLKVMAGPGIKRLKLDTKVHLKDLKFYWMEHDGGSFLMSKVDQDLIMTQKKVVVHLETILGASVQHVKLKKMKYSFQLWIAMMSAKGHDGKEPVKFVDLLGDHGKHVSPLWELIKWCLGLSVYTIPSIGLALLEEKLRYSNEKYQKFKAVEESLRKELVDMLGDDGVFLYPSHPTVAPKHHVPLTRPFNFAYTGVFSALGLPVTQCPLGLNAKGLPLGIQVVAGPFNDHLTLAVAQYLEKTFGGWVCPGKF

[8] = target: T1, Monoglyceride lipase; assay: Inhibition of rat MAGL
[9] = target: T6, Monoglyceride lipase (Mus musculus, UniProt O35678); assay: Inhibition of mouse MAGL
T6 sequence (O35678 whole entry): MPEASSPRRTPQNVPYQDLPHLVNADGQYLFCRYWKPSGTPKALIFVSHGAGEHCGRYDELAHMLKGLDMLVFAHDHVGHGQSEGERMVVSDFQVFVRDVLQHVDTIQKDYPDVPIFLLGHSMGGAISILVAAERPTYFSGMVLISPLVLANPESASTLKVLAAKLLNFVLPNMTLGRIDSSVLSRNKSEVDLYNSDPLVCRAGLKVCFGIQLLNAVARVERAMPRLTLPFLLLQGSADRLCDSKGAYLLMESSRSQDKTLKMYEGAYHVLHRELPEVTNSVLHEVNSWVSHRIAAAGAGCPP

[10] = target: T3, N-acylethanolamine-hydrolyzing acid amidase; assay: Inhibition of recombinant human NAAA expressed in HEK293 cells preincubated for 10 mins followed by PAMCA substrate addition after 30 mins by fluorescence assay; assay type: cell-based; details: hek293
[11] = target: T1, Monoglyceride lipase; assay: Inhibition of rat cerebellar membranes MAGL-like activity preincubated for 30 mins followed by 2-AG substrate addition after 90 mins by HPLC analysis; set-up: species or system Cerebellum, Membrane
[12] = target: T6, Monoglyceride lipase; assay: Inhibition of mouse MAGL preincubated for 30 mins followed by FP-Rh addition after 30 mins by gel-based ABPP assay
[13] = target: T1, Monoglyceride lipase; assay: Inhibition of rat MAGL preincubated for 30 mins followed by FP-Rh addition after 30 mins by gel-based ABPP assay
[14] = target: T4, Monoglyceride lipase; assay: Inhibition of recombinant human full length MAGL expressed in HEK293 cells preincubated for 30 mins followed by FP-Rh addition after 30 mins by gel-based ABPP assay; assay type: cell-based
[15] = target: T2, Fatty-acid amide hydrolase 1; assay: Inhibition of Sprague-Dawley rat brain FAAH preincubated for 10 mins followed by [3H]-anandamide substrate addition after 30 mins by liquid scintillation counting method
[16] = target: T2, Fatty-acid amide hydrolase 1; assay: Inhibition of rat brain microsomal FAAH using N-(2-hydroxyethyl)-4-pyren-1-yl-butanamide as substrate after 60 mins by RP HPLC based fluorescence assay
[17] = target: T2, Fatty-acid amide hydrolase 1; assay: Inhibition of rat FAAH assessed as reduction in [14C]oleamide conversion to oleic acid by Lineweaver-Burk plot analysis
[18] = target: T2, Fatty-acid amide hydrolase 1; assay: Inhibition of FAAH in Wistar rat brain membranes using [3H]-anandamide as substrate preincubated for 10 mins followed by substrate addition measured after 4 mins by liquid scintillation counting method; assay type: cell membranes, Membrane
[19] = Half life in rat plasma; assay type: ADME, cell-free
[20] = Half life in pH 7.4 buffer; assay type: physicochemical
[21] = Half life in pH 5.0 buffer; assay type: physicochemical

IC50 [1]: 43 nM
SMILES: CCCCCCCC/C=C\CCCCCCCCn1sccc1=O

IC50 [2]: 86 nM
SMILES: COc1nn(-c2ccc(NC(=O)OCc3ccccc3)c(C)c2)c(=O)o1

IC50 [3]: 700 to 7200 nM
IC50 [4]: 700 to 7200 nM
SMILES: CC(=O)Oc1cccc2c1C(=O)c1c(OC(C)=O)cc(C(=O)O)cc1C2=O [DIACEREIN]

SMILES: c1ccc(SSc2ccccc2)cc1
IC50 [5]: 1600 nM

IC50 [1]: 20 nM
SMILES: CCCCCCCCn1sc2ccccc2c1=O

IC50 [6]: 315 nM
SMILES: CC(C)=CCC[C@@H](C)[C@@H]1CCC[C@]2(C)C3=C(CC[C@@]12C)[C@@]1(C)CC[C@H](O)C(C)(C)[C@@H]1CC3

IC50 [7]: 13.4 nM
SMILES: O=C(CCCCCCc1ccccc1)c1ncc(-c2ccccn2)o1

IC50 [8]: 4800 nM
IC50 [9]: 2600 nM
SMILES: O=C(N1CCN(C(c2ccccc2)c2ccccc2)CC1)n1ccnc1

IC50 [10]: 240 nM
SMILES: CCCCCCCCCC(=O)N[C@H]1CNC1=O

SMILES: O=C1C=CC(=O)N1c1ccc2ccc3cccc4ccc1c2c34
IC50 [11]: 9200 nM

IC50 [12]: 7.6 nM
IC50 [13]: 14 nM
IC50 [14]: 3.7 nM
SMILES: O=C(OC(C(F)(F)F)C(F)(F)F)N1CCN(Cc2cccc(Oc3ccccc3)c2)CC1

IC50 [15]: 26.2 nM
SMILES: O=C(NC1CCCCC1)OCc1cn(Cc2ccccc2)nn1

IC50 [16]: 11 nM
SMILES: O=C(NCCCCCCn1nnc(-c2ccccc2)n1)Oc1cccnc1

IC50 [15]: 51500 nM
SMILES: O=C(NC1CCCCC1)OCc1ncn(Cc2ccccc2)n1

Ki [17]: 0.52 nM
SMILES: O=C(CCCCCCCCc1ccccc1)c1nc2ncccc2o1

IC50 [16]: 200 nM
SMILES: O=C(NCCCCCCn1nnc(-c2cccc(Cl)c2)n1)Oc1ccccc1

SMILES: O=C(Oc1ccc([N+](=O)[O-])cc1)N1CCN(C(c2ccc(F)cc2)c2ccc(F)cc2)CC1
IC50 [8]: 1800 nM
IC50 [9]: 282 nM

IC50 [5]: 360 nM
SMILES: CCN(CC)C(=S)SSC(=S)N(CC)CC

SMILES: CCCCCCCCn1sccc1=O
IC50 [1]: 88 nM

SMILES: O=C(NC1CCCCC1)Oc1cccc(-c2ccccc2)c1
IC50 [18]: 25.6 nM

IC50 [8]: 0.269 nM
IC50 [9]: 0.191 nM
SMILES: O=C(N1CCC(=C(c2ccc3c(c2)OCO3)c2ccc3c(c2)OCO3)CC1)n1cncn1

half-life [19]: 3.33 h
half-life [20]: > 24 h
half-life [21]: > 24 h
SMILES: O=C(CCCCCc1ccccc1)N1CCOC1=O

Ki [17]: 0.3 nM
SMILES: O=C(CCCCc1ccccc1)c1nc2ncccc2o1
